The results in this text go back to ChEMBL document CHEMBL1134427, “Synthesis and photophysical properties of new fluorinated benzo[c]xanthene dyes as intracellular pH indicators” (Bioorg Med Chem Lett, 2001).

Broadly, the pKa is the negative logarithm of the acid dissociation constant.

The nature of this data set: pKa value by using fluorescence emission spectra. The data set is classed as physicochemical.
In turn, `CN(C)c1ccc2c(-c3cc(C(=O)O)ccc3C(=O)O)c3ccc4c(F)c(=O)ccc4c3oc2c1` returned a pKa of 6.4.

For `CN(C)c1ccc2c(-c3cc(C(=O)O)ccc3C(=O)O)c3ccc4cc(=O)ccc4c3oc2c1`, the pKa is 7.5.

In turn, `CN(C)c1ccc2c(-c3cc(C(=O)O)ccc3C(=O)O)c3cc(F)c4cc(=O)ccc4c3oc2c1` gave a pKa of 7.2.
